Source: patent US20060084704A1, “Methods and compositions for enhancing degradation of nuclear receptor transcription factors and uses thereof” (priority 2004, published 2006)

Key:
AR = target: T1, AR (Homo sapiens, UniProt P10275, T878A); assay type: cell-based; conditions: LNCaP, JC9 5 micromolar about 20 hours, then cycloheximide 15 micrograms/milliliter
T1 construct: LNCaP cells express an endogenous mutant AR that is found in prostate cancer patients; host or cells: LNCaP
T1 sequence (P10275 1-920 T878A): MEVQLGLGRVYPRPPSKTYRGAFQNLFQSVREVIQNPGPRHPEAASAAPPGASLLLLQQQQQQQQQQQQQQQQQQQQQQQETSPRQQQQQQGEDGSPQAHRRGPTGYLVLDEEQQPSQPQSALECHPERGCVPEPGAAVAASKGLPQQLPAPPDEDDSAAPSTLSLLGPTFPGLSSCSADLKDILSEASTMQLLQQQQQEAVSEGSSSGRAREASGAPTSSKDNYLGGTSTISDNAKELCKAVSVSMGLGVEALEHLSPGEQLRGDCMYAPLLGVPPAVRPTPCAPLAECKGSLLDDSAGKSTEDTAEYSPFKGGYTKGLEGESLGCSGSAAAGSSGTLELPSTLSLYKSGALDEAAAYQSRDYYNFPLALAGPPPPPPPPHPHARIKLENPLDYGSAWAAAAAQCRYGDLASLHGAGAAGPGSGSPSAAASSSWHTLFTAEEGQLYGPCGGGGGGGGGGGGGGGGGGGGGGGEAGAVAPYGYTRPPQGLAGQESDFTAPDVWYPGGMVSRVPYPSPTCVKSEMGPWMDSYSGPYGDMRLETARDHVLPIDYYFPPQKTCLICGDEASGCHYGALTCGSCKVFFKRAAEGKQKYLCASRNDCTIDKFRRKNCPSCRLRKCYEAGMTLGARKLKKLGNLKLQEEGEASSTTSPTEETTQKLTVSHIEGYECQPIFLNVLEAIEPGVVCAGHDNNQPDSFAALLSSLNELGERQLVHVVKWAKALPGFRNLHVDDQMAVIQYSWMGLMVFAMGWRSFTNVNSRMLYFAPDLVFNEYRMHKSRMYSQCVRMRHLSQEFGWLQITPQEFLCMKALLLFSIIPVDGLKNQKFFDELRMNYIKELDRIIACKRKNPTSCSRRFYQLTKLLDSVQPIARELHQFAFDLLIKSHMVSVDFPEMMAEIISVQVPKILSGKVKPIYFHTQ
Method: To determine whether the observed reduction of AR protein levels was due to protein degradation rather than inhibition of AR protein synthesis, a second set of three replicate experiments was performed. […] In the absence of new AR protein synthesis, any alterations in AR levels would be mainly attributable to protein degradation. LNCaP cells were cultured, and incubated with JC9 (5 micromolar) for about 20 hours.

[1] = tested on: prostate-specific antigen (PSA); experiment: Western blot of LNCaP cell lysates, PSA; assay type: cell-based, human; conditions: 1 or 2 micromolar, 24 hours, presence or absence of DHT
Method: (§1) Human prostate cancer LNCaP cells and T47D cells were plated at a density of 7×10^5 cells per 60 millimeter tissue culture dish in […] (RPMI) medium containing 10% FBS. The medium was changed to RPMI or DME medium containing 10% charcoal-stripped serum 24 hours later to deplete cellular androgens or estrogens. After another 24 hours, treatment with the test compounds began. The test dose of JC15 was 1 or 2 micromolar and the test does of JC9 was 1, 5 and 10 micromolar. LNCap cells also received dihydrotestosterone (DHT) (3 nanomolar). Control cells received a corresponding amount of the vehicle, dimethylsulfoxide (DMSO) (<0.04%) for an equivalent exposure time. Cells were incubated with JC15 for 24 or 48 hours, and were lysed in 250 microliters of 1×SDS/PAGE loading buffer. Approximately 40 micrograms of total cellular protein was loaded in each lane of a pre-cast gel (NuPAGE, Invitrogen). Protein separation and transfer were performed following the manufacturer's instructions.
(§2) For the prostate cell lysates, androgen receptor (AR) protein was visualized by incubating the resultant membranes with an anti-AR antibody (BD-PharMingen), followed by chemiluminescence detection (ECL Plus, Amersham). […] The resultant protein signals were quantified using densitometry and NIH ImageJ software.

PPAR gamma = target: T2, PPAR gamma (Homo sapiens, UniProt P37231); experiment: Western blot of LNCaP cell lysates, PPAR gamma; assay type: cell-based; conditions: 1 or 2 micromolar, 24 hours, presence or absence of DHT
T2 construct: endogenous in cells; host or cells: LNCaP
T2 sequence (P37231 1-505): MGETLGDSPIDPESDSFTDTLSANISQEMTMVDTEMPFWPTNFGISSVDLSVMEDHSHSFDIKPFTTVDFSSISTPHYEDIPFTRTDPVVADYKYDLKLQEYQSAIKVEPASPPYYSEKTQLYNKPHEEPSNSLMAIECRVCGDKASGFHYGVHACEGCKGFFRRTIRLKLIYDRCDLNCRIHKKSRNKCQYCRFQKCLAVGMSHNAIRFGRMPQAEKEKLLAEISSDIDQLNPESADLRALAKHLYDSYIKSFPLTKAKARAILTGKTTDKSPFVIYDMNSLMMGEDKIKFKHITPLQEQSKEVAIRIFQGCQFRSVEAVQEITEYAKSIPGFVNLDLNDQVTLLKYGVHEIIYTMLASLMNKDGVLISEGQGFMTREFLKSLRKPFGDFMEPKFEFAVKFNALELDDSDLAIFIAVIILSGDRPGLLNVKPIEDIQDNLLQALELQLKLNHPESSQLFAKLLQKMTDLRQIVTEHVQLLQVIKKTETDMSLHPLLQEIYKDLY
Method: as §1, §2

PPAR beta = target: T3, PPAR beta (Homo sapiens, UniProt Q03181); experiment: Western blot of LNCaP cell lysates, PPAR beta; assay type: cell-based; conditions: 1 or 2 micromolar, 24 hours, presence or absence of DHT
T3 construct: endogenous in cells; host or cells: LNCaP
T3 sequence (Q03181 1-441): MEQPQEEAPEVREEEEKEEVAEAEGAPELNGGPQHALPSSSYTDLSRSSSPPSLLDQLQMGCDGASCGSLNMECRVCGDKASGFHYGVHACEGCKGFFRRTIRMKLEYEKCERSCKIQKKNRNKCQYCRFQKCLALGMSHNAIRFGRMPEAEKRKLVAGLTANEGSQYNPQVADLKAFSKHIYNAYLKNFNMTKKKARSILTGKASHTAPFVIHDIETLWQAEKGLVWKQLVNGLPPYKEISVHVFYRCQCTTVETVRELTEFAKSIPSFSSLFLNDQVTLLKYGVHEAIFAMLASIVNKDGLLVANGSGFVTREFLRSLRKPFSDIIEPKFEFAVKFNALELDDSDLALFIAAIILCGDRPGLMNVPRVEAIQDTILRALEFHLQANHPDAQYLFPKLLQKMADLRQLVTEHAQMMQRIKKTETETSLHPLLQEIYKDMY
Method: as §1, §2

| Structure (SMILES) | time within which degradation of existing AR protein was enhanced (AR) | PSA levels [1] | cellular concentration of PPAR gamma (PPAR gamma) | cellular concentration of PPAR beta (PPAR beta) |
| --- | --- | --- | --- | --- |
| COc1ccc(C=CC(=O)C=C(O)C=Cc2ccc(OC)c(OC)c2)cc1OC [JC9, 5-hydroxy-1,7-bis(3,4-dimethoxyphenyl)-1,4,6-heptatrien-3-one] | ≤ 4 h |  |  |  |
| CCOC(=O)CCC(C(=O)C=Cc1ccc(O)c(OC)c1)C(=O)C=Cc1ccc(O)c(OC)c1 (stereo not shown) [JC15, 7-(4-hydroxy-3-methoxyphenyl)-4-[3-(4-hydroxy-3-methoxyphenyl)acryloyl]-5-oxo-hept-6-enoic acid ethyl ester] |  | decreased | did not substantially affect | did not substantially affect |
